Patent US6649647B1, “Trioxane derivatives” (priority 1998, dated 2003)

Experiments:
Type in all cases: cell-based
[1] = test system: Rat 6 subclone of the immortalized F2408 embryo cell line (R6); test: Screening for cytotoxicity, cell count by Coulter Counter, R6 cells; settings: for LD50 (Day 3) R6: day 3 after addition; for LD50 (Day 6) R6: day 6 after addition
Experimental: (§1) Compounds of the invention were screened against Rat 6 subclone of the immortalized F2408 embryo cell line, and Rat 6 (R6T24) cells transfected and transformed by a c-H-ras oncogene. The screening involved placing the R6 and R6T24 cell lines plated at 10^3 cells per well into a 12-well microtiter culture plate for 24 hours. The compounds were added at final concentrations from 0.1-100 μM, and cells were trypsized and counted by Coulter Counter at day 3 and day 6 after the addition. Untreated cells were assigned a survival value of 100%.

[2] = test system: Rat 6 (R6T24) cells transfected and transformed by a c-H-ras oncogene; test: Screening for cytotoxicity, cell count by Coulter Counter, R6T24 cells; settings: R6T24 cell line; for LD50 (Day 3) R6T24: day 3 after addition; for LD50 (Day 6) R6T24: day 6 after addition
Experimental: as §1

DNA within the cell = test: DNA comet assay; settings: cells after 3 or 6 day treatment
Text: In this technique, cells are embedded in agarose gel on a frosted slide after 3 or 6 day treatment, the cells are then lysed and submitted to electrophoresis. The DNA was stained after electrophoresis by ethidium bromide and images of the DNA “comets” were obtained by using an image analysis software package.

[3] = test system: human colon cancer cell line SW 480; test: Growth inhibition assay (MTT), SW 480; settings: Table VI, 6 days incubation
Experimental: (§2) As another example of evaluation of cytotoxicity, cancer cell lines were also used for a growth inhibition assay. The human colon cancer cell lines SW 480 and HT 29 and the murine melanoma cell line B16F10 were used. […] After confluent growth, the cells were trypsinated and resuspended in RPMI plus 10% FCS to a cell concentration of 50000 cells per ml in case of colon cancer cell lines and 20000 in case of B16F10. 100 μl of this cell suspension were transferred in each well of a 96 well microtiter plate and incubated for 1 day at 37° C. in a CO2-incubator. Subsequently, further 100 μl RPMI medium and 1 μl of a DMSO solution, containing the artemisinin derivatives were added. The growth inhibition was estimated after 6 days incubation at 36° C. using the MTT assay.
(§3) 25 μl MTT solution (3-(4,5-dimethylthiazol-2-yl)-2,5-diphenyltetrazolium-bromid) of a starting concentration of 5 mg/ml H2O were added and incubated at 37° C. for 5 h. Subsequently, 100 μl iso-propanol per well were added. After 15 min incubation 100 μl H2O were added. After 30 min shaking, the extinction was measured at 595 nm using a ELISA-Multiplate Reader.

[4] = test system: human colon cancer cell line HT 29; test: Growth inhibition assay (MTT), HT 29; settings: Table VI, 6 days incubation
Experimental: as §2, §3

[5] = test system: murine melanoma cell line B16F10; test: Growth inhibition assay (MTT), B16F10; settings: Table VI, 6 days incubation
Experimental: as §2, §3

| Compound | LD50 (Day 3) R6 ([1]; Table V) [µM] | LD50 (Day 6) R6 ([1]; Table V) [µM] | LD50 (Day 3) R6T24 ([2]; Table V) [µM] | LD50 (Day 6) R6T24 ([2]; Table V) [µM] | DNA damage in the DNA comet assay (DNA within the cell) | LD50 (Day 3) R6 ([1]; Table VA) [µM] | LD50 (Day 6) R6 ([1]; Table VA) [µM] | LD50 (Day 3) R6T24 ([2]; Table VA) [µM] | LD50 (Day 6) R6T24 ([2]; Table VA) [µM] | LD50 SW 480 [3] [nM] | LD50 HT 29 [4] [nM] | LD50 B16F18 [5] [nM] | binding to DNA (DNA comet assay technique) (DNA within the cell) |
| --- | --- | --- | --- | --- | --- | --- | --- | --- | --- | --- | --- | --- | --- |
| 10α and β-[(2′-naphthylmethyl)oxy]dihydroartemisinin [Example 13] | 0.14 | 0.037 | 0.12 | 0.02 | strong DNA damage | – | – | – | – | – | – | – | – |
| 10α and β-[(2′-naphthylmethyl)oxy]dihydroartemisinin [Example 13α] | – | – | – | – | – | 0.14 | 0.037 | 0.12 | 0.02 | 200 | 500 | 300 | – |
| CC1CCC2[C@@H](C)C(O)OC3O[C@]4(C)CCC1C32OO4 (stereo partly drawn) [Dihydroartemisinin, dihydroartemisinin, reference compound] | 1.64 | 0.86 | 2.22 | 0.24 | – | 1.64 | 0.86 | 2.22 | 0.24 | – | – | – | does not bind to DNA |
| CC1CCC2C(C)C(c3ccccc3)OC3OC4(C)CCC1C32OO4 (stereo not drawn) [Example 2, 10β-(phenyl)dihydroartemisinin] | 0.61 | 0.475 | 3.05 | 0.54 | – | 0.61 | 0.475 | 3.05 | 0.54 | 300 | 800 | 500 | – |
| COc1ccc(C2OC3OC4(C)CCC5C(C)CCC(C2C)C35OO4)c(OC)c1 (stereo not drawn) [Example 4, 10-(2′,4′-dimethoxyphenyl)dihydroartemisinin] | 1.37 | 0.29 | 1.09 | 0.13 | strong DNA damage | 1.37 | 0.29 | 1.09 | 0.13 | – | – | – | – |
| CC1CCC2C(C)C(OCC(F)(F)F)OC3OC4(C)CCC1C32OO4 (stereo not drawn) [Example 11, 10β-[(2′,2′,2′-trifluoroethyl)oxy]-dihydroartemisinin] | 1.56 | 0.87 | 3.31 | 0.39 | – | 1.56 | 0.87 | 3.31 | 0.39 | 500 | 1500 | 500 | – |
| C[C@@H]1CC[C@H]2[C@@H](C)C(=O)N(Cc3ccccc3F)[C@@H]3O[C@@]4(C)CC[C@@H]1[C@@]23OO4 [Example 15, 11-aza-N-(2-fluorobenzyl)artemisinin] | 22.70 | >50.00 | >50.00 | 1.69 | – | >50 | >50 | 22.7 | 1.69 | 200 | 1500 | 300 | – |
| CC1CCC2C(CN3CCc4ccccc43)C(=O)OC3OC4(C)CCC1C32OO4 (stereo not drawn) [Example 22, 16-(N-1′-indolinyl)artemisinin] | 24.77 | 29.24 | 11.38 | 7.45 | strong DNA damage | 25 | 29 | 12 | 7.5 | – | – | – | – |
| C[C@@H]1CC[C@H]2[C@@H](C)C(Nc3ccccc3)O[C@@H]3O[C@@]4(C)CC[C@@H]1[C@]32OO4 (stereo partly drawn) [Example 30] | 0.31 | 0.26 | 0.24 | 0.26 | – | 0.31 | 0.26 | 0.24 | 0.26 | 100 | 600 | 400 | – |
| C[C@@H]1CC[C@H]2[C@@H](C)C(c3cc4ccccc4c4ccccc34)O[C@@H]3O[C@@]4(C)CC[C@@H]1[C@]32OO4 (stereo partly drawn) [Example 56] | – | – | – | – | – | 0.38 | 0.26 | 0.24 | 0.21 | 200 | 300 | 300 | – |
| CC1CCC2C(C)C(OCc3cccc(F)c3)OC3OC4(C)CCC1C32OO4 (stereo not drawn) [Example 78] | – | – | – | – | – | – | – | – | – | 250 | 1500 | 200 | – |
| CC1CCC2C(C)C(OCc3ccc(F)cc3)OC3OC4(C)CCC1C32OO4 (stereo not drawn) [Example 79] | – | – | – | – | – | – | – | – | – | 200 | 1500 | 200 | – |
